From ChEMBL document CHEMBL4837192, “The Bisindole Alkaloids Angustilongines M and A from Alstonia penangiana Induce Mitochondrial Apoptosis and G0/G1 Cell Cycle Arrest in HT-29 Cells through Promotion of Tubulin Polymerization” (J Nat Prod, 2021)
The source made the active and inactive calls. The rule behind the calls is not given here.

Key:
HT-29 [1] = assay: Antiproliferative activity against human HT-29 cells cultured as 3D spheroids assessed as inhibition of spheroid formation measured after 48 hrs by MTT assay; assay type: functional, cell-based; details: HT-29, 48 h
CCD-18Co [2] = assay: Cytotoxicity against human CCD-18Co cells assessed as cell growth inhibition measured after 72 hrs by MTT assay; assay type: cell-based
HT-29 [3] = assay: Induction of mitochondrial membrane potential loss in human HT-29 cells assessed as healthy cells at 2.7 uM measured after 48 hrs by JC-1 staining based flow cytometry analysis (Rvb= 91.4%); assay type: functional
HT-29 [4] = assay: Induction of mitochondrial membrane potential loss in human HT-29 cells assessed as apoptotic cells at 2.7 uM measured after 72 hrs by JC-1 staining based flow cytometry analysis (Rvb= 8.6%); assay type: functional
HT-29 [5] = assay: Induction of cell cycle arrest in human HT-29 cells assessed as accumulation of cells at G2 phase at 2.7 uM measured after 48 hrs by propidium iodide staining based flow cytometry analysis (Rvb= 9.09%); assay type: functional
HT-29 [6] = assay: Induction of cell cycle arrest in human HT-29 cells assessed as accumulation of cells at G1 phase at 2.7 uM measured after 48 hrs by propidium iodide staining based flow cytometry analysis (Rvb= 55.39%); assay type: functional
HT-29 [7] = assay: Antiproliferative activity in human HT-29 cells cultured as 3D spheroids assessed as reduction in 3D structure of spheroid morphology at IC50 measured after 48 hrs; assay type: functional, cell-based
HT-29 [8] = assay: Induction of apoptosis in human HT-29 cells assessed as early apoptotic cells at 2.7 uM measured after 72 hrs by FITC-annexin V/propidium iodide- double staining based flow cytometry analysis (Rvb= 12.8%); assay type: functional
KB [9] = assay: Cytotoxicity against human vincristine-sensitive KB cells assessed as cell growth inhibition measured after 72 hrs by MTT assay; assay type: functional, cell-based
HT-29 [10] = assay: Induction of apoptosis in human HT-29 cells assessed as dead cells at 2.7 uM measured after 48 hrs by FITC-annexin V/propidium iodide- double staining based flow cytometry analysis (Rvb= 0.4%); assay type: functional
HT-29 [11] = assay: Induction of mitochondrial membrane potential loss in human HT-29 cells assessed as apoptotic cells at 2.7 uM measured after 24 hrs by JC-1 staining based flow cytometry analysis (Rvb= 8.6%); assay type: functional
HT-29 [12] = assay: Induction of apoptosis in human HT-29 cells assessed as dead cells at 2.7 uM measured after 24 hrs by FITC-annexin V/propidium iodide- double staining based flow cytometry analysis (Rvb= 0.4%); assay type: functional
MCF7 = assay: Cytotoxicity against human MCF7 cells assessed as cell growth inhibition measured after 72 hrs by MTT assay; assay type: functional, cell-based; details: MCF7, 72 h
[13] = Selectivity index, ratio of IC50 for human CCD-18Co cells to IC50 for human HT-29 cells assessed as cell growth inhibition measured after 48 hrs by MTT assay
HT-29 [14] = assay: Induction of mitochondrial membrane potential loss in human HT-29 cells assessed as healthy cells at 2.7 uM measured after 72 hrs by JC-1 staining based flow cytometry analysis (Rvb= 91.4%); assay type: functional
KB [15] = assay: Cytotoxicity against human vincristine-resistant KB cells assessed as cell growth inhibition measured after 72 hrs by MTT assay; assay type: functional, cell-based
HT-29 [16] = assay: Induction of mitochondrial membrane potential loss in human HT-29 cells assessed as healthy cells at 2.7 uM measured after 24 hrs by JC-1 staining based flow cytometry analysis (Rvb= 91.4%); assay type: functional
HT-29 [17] = assay: Induction of cell cycle arrest in human HT-29 cells assessed as accumulation of cells at S phase at 2.7 uM measured after 24 hrs by propidium iodide staining based flow cytometry analysis (Rvb= 35.52%); assay type: functional
HT-29 [18] = assay: Induction of cell cycle arrest in human HT-29 cells assessed as accumulation of cells at G2 phase at 2.7 uM measured after 72 hrs by propidium iodide staining based flow cytometry analysis (Rvb= 9.09%); assay type: functional
CCD-18Co [19] = assay: Cytotoxicity against human CCD-18Co cells assessed as cell growth inhibition measured after 48 hrs by MTT assay; assay type: cell-based
HT-29 [20] = assay: Antiproliferative activity in human HT-29 cells cultured as 3D spheroids assessed as gradual disaggregation of peripheral cells at IC50 measured after 48 hrs; assay type: functional, cell-based
HT-29 [21] = assay: Induction of apoptosis in human HT-29 cells assessed as activation of caspase-3 at 2.7 uM measured after 24 hrs by flow cytometry analysis (Rvb= 2.2%); assay type: functional
HCT-116 = assay: Cytotoxicity against human HCT-116 cells assessed as cell growth inhibition measured after 72 hrs by MTT assay; assay type: functional, cell-based; details: HCT-116, 72 h
HT-29 [22] = assay: Induction of cell cycle arrest in human HT-29 cells assessed as accumulation of cells at S phase at 2.7 uM measured after 72 hrs by propidium iodide staining based flow cytometry analysis (Rvb= 35.52%); assay type: functional
HT-29 [23] = assay: Induction of apoptosis in human HT-29 cells assessed as viable cells at 2.7 uM measured after 24 hrs by FITC-annexin V/propidium iodide- double staining based flow cytometry analysis (Rvb= 83.8%); assay type: functional; details: read-out: Activity
HT-29 [24] = assay: Cytotoxicity against human HT-29 cells assessed as cell growth inhibition measured after 72 hrs by MTT assay; assay type: functional, cell-based; details: HT-29, 72 h
HT-29 [25] = assay: Induction of apoptosis in human HT-29 cells assessed as late apoptotic cells at 2.7 uM measured after 24 hrs by FITC-annexin V/propidium iodide- double staining based flow cytometry analysis (Rvb= 3.0%); assay type: functional
HT-29 [26] = assay: Induction of apoptosis in human HT-29 cells assessed as late apoptotic cells at 2.7 uM measured after 72 hrs by FITC-annexin V/propidium iodide- double staining based flow cytometry analysis (Rvb= 3.0%); assay type: functional
HT-29 [27] = assay: Induction of apoptosis in human HT-29 cells assessed as viable cells at 2.7 uM measured after 72 hrs by FITC-annexin V/propidium iodide- double staining based flow cytometry analysis (Rvb= 83.8%); assay type: functional; details: read-out: Activity
HT-29 [28] = assay: Induction of apoptosis in human HT-29 cells assessed as activation of caspase-3 at 2.7 uM measured after 72 hrs by flow cytometry analysis (Rvb= 2.2%); assay type: functional
HT-29 [29] = assay: Induction of cell cycle arrest in human HT-29 cells assessed as accumulation of cells at S phase at 2.7 uM measured after 48 hrs by propidium iodide staining based flow cytometry analysis (Rvb= 35.52%); assay type: functional
HT-29 [30] = assay: Induction of cell cycle arrest in human HT-29 cells assessed as accumulation of cells at G1 phase at 2.7 uM measured after 72 hrs by propidium iodide staining based flow cytometry analysis (Rvb= 55.39%); assay type: functional
HT-29 [31] = assay: Induction of apoptosis in human HT-29 cells assessed as early apoptotic cells at 2.7 uM measured after 24 hrs by FITC-annexin V/propidium iodide- double staining based flow cytometry analysis (Rvb= 12.8%); assay type: functional
HT-29 [32] = assay: Induction of cell cycle arrest in human HT-29 cells assessed as accumulation of cells at G1 phase at 2.7 uM measured after 24 hrs by propidium iodide staining based flow cytometry analysis (Rvb= 55.39%); assay type: functional
HT-29 [33] = assay: Induction of mitochondrial membrane potential loss in human HT-29 cells assessed as apoptotic cells at 2.7 uM measured after 48 hrs by JC-1 staining based flow cytometry analysis (Rvb= 8.6%); assay type: functional
HT-29 [34] = assay: Induction of apoptosis in human HT-29 cells assessed as late apoptotic cells at 2.7 uM measured after 48 hrs by FITC-annexin V/propidium iodide- double staining based flow cytometry analysis (Rvb= 3.0%); assay type: functional
HT-29 [35] = assay: Anticlonogenic activity against human HT-29 cells assessed as inhibition of colony formation measured after 6 days by methylene blue staining based assay; assay type: functional, cell-based; details: dose 1.35-2.7 µM, time 6.0 day
HT-29 [36] = assay: Induction of apoptosis in human HT-29 cells assessed as activation of caspase-3 at 2.7 uM measured after 48 hrs by flow cytometry analysis (Rvb= 2.2%); assay type: functional
HT-29 [37] = assay: Induction of apoptosis in human HT-29 cells assessed as early apoptotic cells at 2.7 uM measured after 48 hrs by FITC-annexin V/propidium iodide- double staining based flow cytometry analysis (Rvb= 12.8%); assay type: functional
HT-29 [38] = assay: Induction of apoptosis in human HT-29 cells assessed as viable cells at 2.7 uM measured after 48 hrs by FITC-annexin V/propidium iodide- double staining based flow cytometry analysis (Rvb= 83.8%); assay type: functional; details: read-out: Activity
A549 = assay: Cytotoxicity against human A549 cells assessed as cell growth inhibition measured after 72 hrs by MTT assay; assay type: functional, cell-based; details: A549, 72 h
HT-29 [39] = assay: Induction of cell cycle arrest in human HT-29 cells assessed as accumulation of cells at G2 phase at 2.7 uM measured after 24 hrs by propidium iodide staining based flow cytometry analysis (Rvb= 9.09%); assay type: functional
PC-3 = assay: Cytotoxicity against human PC-3 cells assessed as cell growth inhibition measured after 72 hrs by MTT assay; assay type: functional, cell-based; details: PC-3, 72 h
HT-29 [40] = assay: Cytotoxicity against human HT-29 cells assessed as cell growth inhibition measured after 48 hrs by MTT assay; assay type: functional, cell-based; details: HT-29, 48 h
Tubulin (Homo sapiens) = Tubulin (Homo sapiens) (UniProt P68371+Q9H4B7+P0DPH7+P68366+Q13509+Q71U36+P04350+Q3ZCM7+P07437+P68363+Q9BQE3+Q6PEY2+Q13885+Q9BVA1+Q9BUF5); assay: Induction of tubulin polymerization in human HT-29 cells assessed as stabilization of microtubules at 10 uM by spectrophotometric analysis; assay type: cell-based
MDA-MB-231 = assay: Cytotoxicity against human MDA-MB-231 cells assessed as cell growth inhibition measured after 72 hrs by MTT assay; assay type: functional, cell-based; details: MDA-MB-231, 72 h
HT-29 [41] = assay: Induction of apoptosis in human HT-29 cells assessed as dead cells at 2.7 uM measured after 72 hrs by FITC-annexin V/propidium iodide- double staining based flow cytometry analysis (Rvb= 0.4%); assay type: functional

## O=c1[nH]cc(F)c(=O)[nH]1 [FLUOROURACIL]
HT-29 [1]
  IC50: 25.9 µM

## C/C=C1/CN2[C@H]3C[C@@H]1[C@@H](CO)[C@@H]2Cc1c3n(C)c2ccc3c(c12)[C@H](C)[C@@H]1[C@@H](OC[C@@H]2[C@H]1C[C@H]1c4c(c5ccccc5n4C)C[C@@H]2N1C)O3
CCD-18Co [2]
  IC50: > 10 µM
HT-29 [3]
  Activity: 63.9%
HT-29 [4]
  Activity: 63.4%
HT-29 [5]
  Activity: 12.12%
HT-29 [6]
  Activity: 66.11%
HT-29 [7]
  Activity: Active
HT-29 [8]
  Activity: 40.3%
HT-29 [1]
  IC50: 3.8 µM
KB [9]
  IC50: 5 µM
HT-29 [10]
  Activity: 0.1%
HT-29 [11]
  Activity: 9.1%
HT-29 [12]
  Activity: 0.9%
MCF7
  IC50: > 10 µM
[13]
  Ratio IC50: 5.32
HT-29 [14]
  Activity: 36.6%
KB [15]
  IC50: 7.6 µM
HT-29 [16]
  Activity: 90.9%
HT-29 [17]
  Activity: 19.88%
HT-29 [18]
  Activity: 7.67%
CCD-18Co [19]
  IC50: 14.1 µM
HT-29 [20]
  Activity: Active
HT-29 [21]
  Activity: 1.9%
HCT-116
  IC50: 4.7 µM
HT-29 [22]
  Activity: 24.39%
HT-29 [23]
  viability at 2.7 µM: 77.6%
HT-29 [24]
  IC50: 0.2 µM
HT-29 [25]
  Activity: 12.8%
HT-29 [26]
  Activity: 41.6%
HT-29 [27]
  viability at 2.7 µM: 17.7%
HT-29 [28]
  Activity: 67.8%
HT-29 [29]
  Activity: 21.76%
HT-29 [30]
  Activity: 67.94%
HT-29 [31]
  Activity: 8.7%
HT-29 [32]
  Activity: 65.56%
HT-29 [33]
  Activity: 36.1%
HT-29 [34]
  Activity: 7.1%
HT-29 [35]
  Activity: Dose-Dependent Effect
HT-29 [36]
  Activity: 26%
HT-29 [37]
  Activity: 32%
HT-29 [38]
  viability at 2.7 µM: 60.8%
A549
  IC50: 2.1 µM
HT-29 [39]
  Activity: 14.56%
PC-3
  IC50: 6.1 µM
HT-29 [40]
  IC50: 2.7 µM
Tubulin (Homo sapiens)
  Activity: Active
MDA-MB-231
  IC50: 5.9 µM
HT-29 [41]
  Activity: 0.4%
